How the values were obtained:
Assay in all cases: Colony formation assay, transfected expression vectors
Format in all cases: cell-based
[1] = test system: livin-expressing HeLa cells; settings: nucleic acid coding for peptide transfected; FIG. 3
Description: (§1) Expression vectors bearing the nucleic acid coding for peptide number 75 (corresponds to SEQ ID No: 127 or number 41 of TABLE 2) or bearing the nucleic acid coding for control peptide were introduced in HeLa cells and livin-negative C33a cells. The cells were selected for stable transfectants.
(§2) The nucleic acids coding for the peptides of TABLE 3 were cloned into mammalian expression vectors and transfected into different cells to observe their further growth. By using a HIS-tag it was possible to verify that all peptide sequences could be expressed.

[2] = test system: livin-negative C33a cells; settings: nucleic acid coding for peptide transfected; FIG. 3
Description: as §1, §2

MeWo (melanoma cells) = settings: nucleic acid coding for peptide transfected
Description: as §2

Substance: GSRCIRRRISILFFVFRVLRSRRVLRSAEIYES* (randomized peptide that bind to particular IAPs) [compound 75]
- growth of livin-expressing HeLa cells [1]: blocked the growth
- growth of livin-negative C33a cells [2]: not affected
- growth of MeWo (melanoma cells) (MeWo (melanoma cells)): blocked the growth

Source: patent US7544768B2, “Peptides for inducing apoptosis in tumor cells” (Deutsches Krebsforschungszentrum Stiflung des Offentlichen …, priority 2002, dated 2009)
